Reference: ChEMBL document CHEMBL3217454, “Structureactivity relationship studies using peptide arrays: the example of HIV-1 Revintegrase interaction” (Medchemcomm, 2013)
Square brackets hold non-standard residues; d marks the D form. Peptide text beside a SMILES is read from it. NMeR = CN[C@@H](CCCNC(=N)N)C(=O)O; NMeF = CN[C@@H](Cc1ccccc1)C(=O)O; NMeI = CC[C@H](C)[C@H](NC)C(=O)O; NMeT = CN[C@H](C(=O)O)[C@@H](C)O; NMeK = CN[C@@H](CCCCN)C(=O)O; NMeM = CN[C@@H](CCSC)C(=O)O; NMeV = CN[C@H](C(=O)O)C(C)C; NMeA = CN[C@@H](C)C(=O)O

Columns and labels:
Design in all cases: concentration or dose not given beside the values
[1] = molecular target: Human immunodeficiency virus type 1 integrase (Human immunodeficiency virus 1) (UniProt Q7ZJM1); experiment: Binding affinity to HIV-1 integrase measured after overnight incubation by chemiluminescence analysis relative to IN 118-128
Sequence of Human immunodeficiency virus type 1 integrase (Human immunodeficiency virus 1) (Q7ZJM1 as listed by the source): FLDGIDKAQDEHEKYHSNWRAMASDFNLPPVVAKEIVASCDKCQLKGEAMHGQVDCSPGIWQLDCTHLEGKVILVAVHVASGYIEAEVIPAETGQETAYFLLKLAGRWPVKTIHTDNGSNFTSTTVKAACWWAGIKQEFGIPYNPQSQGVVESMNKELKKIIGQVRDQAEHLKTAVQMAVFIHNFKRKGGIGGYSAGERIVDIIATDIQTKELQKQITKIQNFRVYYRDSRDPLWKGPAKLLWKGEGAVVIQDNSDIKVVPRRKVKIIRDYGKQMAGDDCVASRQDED

[2] = system: Human immunodeficiency virus 1; experiment: Binding affinity to HLT-tagged HIV-1 Rev measured after overnight incubation by chemiluminescence analysis relative to IN 118-128
[3] = molecular target: Human immunodeficiency virus type 1 integrase (Human immunodeficiency virus 1) (UniProt Q7ZJM1); experiment: Binding affinity to HIV-1 integrase measured after overnight incubation by chemiluminescence analysis relative to IN 174-188
[4] = system: Human immunodeficiency virus 1; experiment: Binding affinity to HLT-tagged HIV-1 Rev measured after overnight incubation by chemiluminescence analysis relative to IN 174-188

| Compound | Activity [1] | Activity [2] | Activity [3] | Activity [4] |
| --- | --- | --- | --- | --- |
| CC(C)[C@@H](NC(=O)[C@@H](NC(=O)[C@@H](NC(=O)[C@H](CO)NC(=O)[C@@H](NC(=O)[C@H](Cc1ccccc1)NC(=O)[C@H](CC(N)=O)NC(=O)[C@H](CO)NC(=O)CN)[C@@H](C)O)[C@@H](C)O)[C@@H](C)O)C(=O)N[C@@H](CCCCN)C(=O)N[C@@H](C)C(=O)O | 97% | 107% | – | – |
| CC(C)[C@H](NC(=O)[C@@H](NC(=O)[C@@H](NC(=O)[C@@H](CO)NC(=O)[C@@H](NC(=O)[C@H](Cc1ccccc1)NC(=O)[C@H](CC(N)=O)NC(=O)[C@H](CO)NC(=O)CN)[C@@H](C)O)[C@@H](C)O)[C@@H](C)O)C(=O)N[C@@H](CCCCN)C(=O)N[C@@H](C)C(=O)O | 92% | 124% | – | – |
| CC(C)[C@H](NC(=O)[C@@H](NC(=O)[C@@H](NC(=O)[C@H](CO)NC(=O)[C@@H](NC(=O)[C@H](Cc1ccccc1)NC(=O)[C@H](CC(N)=O)NC(=O)[C@H](CO)NC(=O)CN)[C@@H](C)O)[C@@H](C)O)[C@@H](C)O)C(=O)N[C@@H](CCCCN)C(=O)N[C@H](C)C(=O)O | 136% | 137% | – | – |
| CC(C)[C@H](NC(=O)[C@@H](NC(=O)[C@@H](NC(=O)[C@H](CO)NC(=O)[C@@H](NC(=O)[C@H](Cc1ccccc1)NC(=O)[C@H](CC(N)=O)NC(=O)[C@H](CO)NC(=O)CN)[C@@H](C)O)[C@@H](C)O)[C@@H](C)O)C(=O)N[C@H](CCCCN)C(=O)N[C@@H](C)C(=O)O | 109% | 53% | – | – |
| CC(C)[C@H](NC(=O)[C@@H](NC(=O)[C@H](NC(=O)[C@H](CO)NC(=O)[C@@H](NC(=O)[C@H](Cc1ccccc1)NC(=O)[C@H](CC(N)=O)NC(=O)[C@H](CO)NC(=O)CN)[C@@H](C)O)[C@@H](C)O)[C@@H](C)O)C(=O)N[C@@H](CCCCN)C(=O)N[C@@H](C)C(=O)O | 150% | 176% | – | – |
| CC(C)[C@H](NC(=O)[C@H](NC(=O)[C@@H](NC(=O)[C@H](CO)NC(=O)[C@@H](NC(=O)[C@H](Cc1ccccc1)NC(=O)[C@H](CC(N)=O)NC(=O)[C@H](CO)NC(=O)CN)[C@@H](C)O)[C@@H](C)O)[C@@H](C)O)C(=O)N[C@@H](CCCCN)C(=O)N[C@@H](C)C(=O)O | 85% | 60% | – | – |
| CC[C@H](C)[C@H](NC(=O)[C@H](Cc1ccccc1)NC(=O)[C@@H](NC(=O)[C@H](C)NC(=O)[C@H](CCSC)NC(=O)[C@H](CCC(N)=O)NC(=O)[C@@H](NC(=O)[C@H](C)NC(=O)[C@@H](N)[C@@H](C)O)C(C)C)C(C)C)C(=O)N[C@@H](Cc1cnc[nH]1)C(=O)N[C@@H](CC(N)=O)C(=O)N[C@@H](Cc1ccccc1)C(=O)N[C@@H](CCCCN)C(=O)N[C@@H](CCCNC(=N)N)C(=O)N(C)[C@@H](CCCCN)C(=O)O (H-TAVQMAVFIHNFKR[NMeK]-OH) | – | – | 117% | 201% |
| CC[C@H](C)[C@H](NC(=O)[C@H](Cc1ccccc1)NC(=O)[C@@H](NC(=O)[C@H](C)NC(=O)[C@H](CCSC)NC(=O)[C@H](CCC(N)=O)NC(=O)[C@@H](NC(=O)[C@H](C)NC(=O)[C@@H](N)[C@@H](C)O)C(C)C)C(C)C)C(=O)N[C@@H](Cc1cnc[nH]1)C(=O)N[C@@H](CC(N)=O)C(=O)N[C@@H](Cc1ccccc1)C(=O)N[C@@H](CCCCN)C(=O)N(C)[C@@H](CCCNC(=N)N)C(=O)N[C@@H](CCCCN)C(=O)O (H-TAVQMAVFIHNFK[NMeR]K-OH) | – | – | 123% | 75% |
| CC[C@H](C)[C@H](NC(=O)[C@H](Cc1ccccc1)NC(=O)[C@@H](NC(=O)[C@H](C)NC(=O)[C@H](CCSC)NC(=O)[C@H](CCC(N)=O)NC(=O)[C@@H](NC(=O)[C@H](C)NC(=O)[C@@H](N)[C@@H](C)O)C(C)C)C(C)C)C(=O)N[C@@H](Cc1cnc[nH]1)C(=O)N[C@@H](CC(N)=O)C(=O)N[C@@H](Cc1ccccc1)C(=O)N(C)[C@@H](CCCCN)C(=O)N[C@@H](CCCNC(=N)N)C(=O)N[C@@H](CCCCN)C(=O)O (H-TAVQMAVFIHNF[NMeK]RK-OH) | – | – | 130% | 70% |
| CC[C@H](C)[C@H](NC(=O)[C@H](Cc1ccccc1)NC(=O)[C@@H](NC(=O)[C@H](C)NC(=O)[C@H](CCSC)NC(=O)[C@H](CCC(N)=O)NC(=O)[C@@H](NC(=O)[C@H](C)NC(=O)[C@@H](N)[C@@H](C)O)C(C)C)C(C)C)C(=O)N[C@@H](Cc1cnc[nH]1)C(=O)N[C@@H](CC(N)=O)C(=O)N(C)[C@@H](Cc1ccccc1)C(=O)N[C@@H](CCCCN)C(=O)N[C@@H](CCCNC(=N)N)C(=O)N[C@@H](CCCCN)C(=O)O (H-TAVQMAVFIHN[NMeF]KRK-OH) | – | – | 122% | 50% |
| CC[C@H](C)[C@@H](C(=O)N[C@@H](Cc1cnc[nH]1)C(=O)N[C@@H](CC(N)=O)C(=O)N[C@@H](Cc1ccccc1)C(=O)N[C@@H](CCCCN)C(=O)N[C@@H](CCCNC(=N)N)C(=O)N[C@@H](CCCCN)C(=O)O)N(C)C(=O)[C@H](Cc1ccccc1)NC(=O)[C@@H](NC(=O)[C@H](C)NC(=O)[C@H](CCSC)NC(=O)[C@H](CCC(N)=O)NC(=O)[C@@H](NC(=O)[C@H](C)NC(=O)[C@@H](N)[C@@H](C)O)C(C)C)C(C)C (H-TAVQMAVF[NMeI]HNFKRK-OH) | – | – | 123% | 107% |
| CC[C@H](C)[C@H](NC(=O)[C@H](Cc1ccccc1)N(C)C(=O)[C@@H](NC(=O)[C@H](C)NC(=O)[C@H](CCSC)NC(=O)[C@H](CCC(N)=O)NC(=O)[C@@H](NC(=O)[C@H](C)NC(=O)[C@@H](N)[C@@H](C)O)C(C)C)C(C)C)C(=O)N[C@@H](Cc1cnc[nH]1)C(=O)N[C@@H](CC(N)=O)C(=O)N[C@@H](Cc1ccccc1)C(=O)N[C@@H](CCCCN)C(=O)N[C@@H](CCCNC(=N)N)C(=O)N[C@@H](CCCCN)C(=O)O (H-TAVQMAV[NMeF]IHNFKRK-OH) | – | – | 141% | 152% |
| CC[C@H](C)[C@H](NC(=O)[C@H](Cc1ccccc1)NC(=O)[C@H](C(C)C)N(C)C(=O)[C@H](C)NC(=O)[C@H](CCSC)NC(=O)[C@H](CCC(N)=O)NC(=O)[C@@H](NC(=O)[C@H](C)NC(=O)[C@@H](N)[C@@H](C)O)C(C)C)C(=O)N[C@@H](Cc1cnc[nH]1)C(=O)N[C@@H](CC(N)=O)C(=O)N[C@@H](Cc1ccccc1)C(=O)N[C@@H](CCCCN)C(=O)N[C@@H](CCCNC(=N)N)C(=O)N[C@@H](CCCCN)C(=O)O (H-TAVQMA[NMeV]FIHNFKRK-OH) | – | – | 67% | 55% |
| CC[C@H](C)[C@H](NC(=O)[C@H](Cc1ccccc1)NC(=O)[C@@H](NC(=O)[C@H](C)N(C)C(=O)[C@H](CCSC)NC(=O)[C@H](CCC(N)=O)NC(=O)[C@@H](NC(=O)[C@H](C)NC(=O)[C@@H](N)[C@@H](C)O)C(C)C)C(C)C)C(=O)N[C@@H](Cc1cnc[nH]1)C(=O)N[C@@H](CC(N)=O)C(=O)N[C@@H](Cc1ccccc1)C(=O)N[C@@H](CCCCN)C(=O)N[C@@H](CCCNC(=N)N)C(=O)N[C@@H](CCCCN)C(=O)O (H-TAVQM[NMeA]VFIHNFKRK-OH) | – | – | 99% | 66% |
| CC[C@H](C)[C@H](NC(=O)[C@H](Cc1ccccc1)NC(=O)[C@@H](NC(=O)[C@H](C)NC(=O)[C@H](CCSC)N(C)C(=O)[C@H](CCC(N)=O)NC(=O)[C@@H](NC(=O)[C@H](C)NC(=O)[C@@H](N)[C@@H](C)O)C(C)C)C(C)C)C(=O)N[C@@H](Cc1cnc[nH]1)C(=O)N[C@@H](CC(N)=O)C(=O)N[C@@H](Cc1ccccc1)C(=O)N[C@@H](CCCCN)C(=O)N[C@@H](CCCNC(=N)N)C(=O)N[C@@H](CCCCN)C(=O)O (H-TAVQ[NMeM]AVFIHNFKRK-OH) | – | – | 103% | 134% |
| CC[C@H](C)[C@H](NC(=O)[C@H](Cc1ccccc1)NC(=O)[C@@H](NC(=O)[C@H](C)NC(=O)[C@H](CCSC)NC(=O)[C@H](CCC(N)=O)NC(=O)[C@H](C(C)C)N(C)C(=O)[C@H](C)NC(=O)[C@@H](N)[C@@H](C)O)C(C)C)C(=O)N[C@@H](Cc1cnc[nH]1)C(=O)N[C@@H](CC(N)=O)C(=O)N[C@@H](Cc1ccccc1)C(=O)N[C@@H](CCCCN)C(=O)N[C@@H](CCCNC(=N)N)C(=O)N[C@@H](CCCCN)C(=O)O (H-TA[NMeV]QMAVFIHNFKRK-OH) | – | – | 118% | 110% |
| CC[C@H](C)[C@H](NC(=O)[C@H](Cc1ccccc1)NC(=O)[C@@H](NC(=O)[C@H](C)NC(=O)[C@H](CCSC)NC(=O)[C@H](CCC(N)=O)NC(=O)[C@@H](NC(=O)[C@H](C)N(C)C(=O)[C@@H](N)[C@@H](C)O)C(C)C)C(C)C)C(=O)N[C@@H](Cc1cnc[nH]1)C(=O)N[C@@H](CC(N)=O)C(=O)N[C@@H](Cc1ccccc1)C(=O)N[C@@H](CCCCN)C(=O)N[C@@H](CCCNC(=N)N)C(=O)N[C@@H](CCCCN)C(=O)O (H-T[NMeA]VQMAVFIHNFKRK-OH) | – | – | 75% | 86% |
| CC[C@H](C)[C@H](NC(=O)[C@H](Cc1ccccc1)NC(=O)[C@@H](N)C(C)C)C(=O)N[C@@H](Cc1cnc[nH]1)C(=O)N[C@@H](CC(N)=O)C(=O)N[C@@H](Cc1ccccc1)C(=O)N[C@@H](CCCCN)C(=O)N[C@@H](CCCNC(=N)N)C(=O)N[C@@H](CCCCN)C(=O)O (H-VFIHNFKRK-OH) | – | – | 132% | 86% |
| CC[C@H](C)[C@H](NC(=O)[C@H](Cc1ccccc1)NC(=O)[C@@H](NC(=O)[C@H](C)NC(=O)[C@H](CCSC)NC(=O)[C@H](CCC(N)=O)NC(=O)[C@@H](N)C(C)C)C(C)C)C(=O)N[C@@H](Cc1cnc[nH]1)C(=O)N[C@@H](CC(N)=O)C(=O)N[C@@H](Cc1ccccc1)C(=O)N[C@@H](CCCCN)C(=O)N[C@@H](CCCNC(=N)N)C(=O)N[C@@H](CCCCN)C(=O)O (H-VQMAVFIHNFKRK-OH) | – | – | 133% | 104% |
| CC[C@H](C)[C@H](NC(=O)[C@H](Cc1ccccc1)NC(=O)[C@@H](NC(=O)[C@H](C)NC(=O)[C@H](CCSC)NC(=O)[C@H](CCC(N)=O)NC(=O)[C@@H](NC(=O)[C@H](C)NC(=O)[C@@H](NC)[C@@H](C)O)C(C)C)C(C)C)C(=O)N[C@@H](Cc1cnc[nH]1)C(=O)N[C@@H](CC(N)=O)C(=O)N[C@@H](Cc1ccccc1)C(=O)N[C@@H](CCCCN)C(=O)N[C@@H](CCCNC(=N)N)C(=O)N[C@@H](CCCCN)C(=O)O (H-[NMeT]AVQMAVFIHNFKRK-OH) | – | – | 84% | 93% |
